According to patent publication US5061794A, “Cephalosporin derivatives, and antibacterial agents” (priority 1986, dated 1991):
In brackets after ≈: the same amount, converted by molar mass. Read-outs that look alike come from different tables or passages of the source.

How the values were obtained:
A. calcoaceticus No. 4 = assay: in vitro antibacterial activity, agar plate dilution method (MIC); type: cell-based, Acinetobacter calcoaceticus; conditions: 10^6 CFU/ml; for MIC: Acinetobacter calcoaceticus, NO.4, 16 h
Procedure, shortened: (§1)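 Agar dilution: MH agar + graded drug conc.; inoculum 10^6 CFU/ml (overnight MH broth culture, one loopful); 37° C., 16 h; MIC, μg/ml.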

Ps. aeruginosa IF03445 = assay: as above; type: cell-based, Pseudomonas aeruginosa; conditions: 10^6 CFU/ml; for Minimum Inhibitory Concentration (MIC): Ps. aeruginosa IF03445
Procedure, shortened: as §1

Ps. aeruginosa AK 109 = assay: as above; type: cell-based, Pseudomonas aeruginosa; conditions: for MIC: Pseudomonas aeruginosa, AK109, 16 h, read-out: Minimum Inhibitory Concentration (MIC)
Procedure, shortened: as §1

Ps. aeruginosa AKR17 = assay: as above; type: cell-based, Pseudomonas aeruginosa; conditions: for MIC: Pseudomonas aeruginosa
Procedure, shortened: as §1

P. vulgaris No. 33 = assay: as above; type: cell-based; conditions: *P. vulgaris No. 33, lactamase-producing strain; 10^6 CFU/ml
Procedure, shortened: as §1

S. marcescens No. 16-2 = assay: as above; type: cell-based; conditions: for MIC: Serratia marcescens, NO.162, 16 h; for Minimum Inhibitory Concentration (MIC): *S. marcescens No. 16-2, lactamase-producing strain
Procedure, shortened: as §1

E. coli GN5482 = assay: as above; type: cell-based; conditions: for MIC: Escherichia coli, GN5482, 16 h; for Minimum Inhibitory Concentration (MIC): *E. coli GN5482, lactamase-producing strain
Procedure, shortened: as §1

E. cloacae Nek 39 = assay: as above; type: cell-based; conditions: 10^6 CFU/ml; for Minimum Inhibitory Concentration (MIC): *E. cloacae Nek 39, lactamase-producing strain
Procedure, shortened: as §1

E. cloacae 963 = assay: as above; type: cell-based; conditions: 10^6 CFU/ml
Procedure, shortened: as §1

P. vulgaris HX-19 = assay: as above; type: cell-based; conditions: for MIC: Proteus vulgaris, HX19, 16 h, read-out: Minimum Inhibitory Concentration (MIC)
Procedure, shortened: as §1

K. pneumoniae No. 42 = assay: as above; type: cell-based; conditions: *K. pneumoniae No. 42, lactamase-producing strain; 10^6 CFU/ml
Procedure, shortened: as §1

K. oxytoca GN10650 = assay: as above; type: cell-based; conditions: *K. oxytoca GN10650, lactamase-producing strain; 10^6 CFU/ml
Procedure, shortened: as §1

S. aureus 209P NIHJ-JC1 = assay: as above; type: cell-based; conditions: 10^6 CFU/ml, 37° C., 16 hours; for Minimum Inhibitory Concentration (MIC): S. aureus 209P NIHJ-JC1
Procedure, shortened: as §1

K. pneumoniae PCI-602 = assay: as above; type: cell-based; conditions: 10^6 CFU/ml; for Minimum Inhibitory Concentration (MIC): K. pneumoniae PCI-602
Procedure, shortened: as §1

M. morganii GN5407 = assay: as above; type: cell-based; conditions: *M. morganii GN5407, lactamase-producing strain; 10^6 CFU/ml
Procedure, shortened: as §1

S. marcescens IAM 1184 = assay: as above; type: cell-based; conditions: S. marcescens IAM 1184, 10^6 CFU/ml
Procedure, shortened: as §1

E. coli NIHJ JC2 = assay: as above; type: cell-based; conditions: for Minimum Inhibitory Concentration (MIC): E. coli NIHJ JC2, 10^6 CFU/ml, 37° C., 16 hours
Procedure, shortened: as §1

Ps. cepacia 23 = assay: as above; type: cell-based, Pseudomonas cepacia; conditions: Ps. cepacia 23, 10^6 CFU/ml; for MIC: Burkholderia cepacia, 16 h, read-out: Minimum Inhibitory Concentration (MIC)
Procedure, shortened: as §1

E. coli CSH(RE45) = assay: microbe, parasite or virus in culture; type: cell-based; conditions: *E. coli CSH(RE45), lactamase-producing strain; 10^6 CFU/ml
Procedure, shortened: as §1

E. coli CSH2 (RK1) = assay: microbe, parasite or virus in culture; type: cell-based; conditions: *E. coli CSH2 (RK1), lactamase-producing strain; 10^6 CFU/ml
Procedure, shortened: as §1

[1] = Ps. aeruginosa AK 109, 10^6 CFU/ml
[2] = read-out: Minimum Inhibitory Concentration (MIC)
[3] = Enterobacter cloacae, 963, 16 h, read-out: Minimum Inhibitory Concentration (MIC), E. cloacae 963
[4] = Enterobacter cloacae, 16 h, E. cloacae 963, read-out: Minimum Inhibitory Concentration (MIC)

| SMILES | Minimum Inhibitory Concentration (MIC) (Ps. aeruginosa IF03445) | Minimum Inhibitory Concentration (MIC) (P. vulgaris No. 33) | Minimum Inhibitory Concentration (MIC) (E. cloacae Nek 39) | MIC (E. cloacae 963; [3]) | Minimum Inhibitory Concentration (MIC) (K. pneumoniae No. 42) | Minimum Inhibitory Concentration (MIC) (K. oxytoca GN10650) | Minimum Inhibitory Concentration (MIC) (M. morganii GN5407) | Minimum Inhibitory Concentration (MIC) (S. marcescens IAM 1184) | MIC (Ps. cepacia 23) | Minimum Inhibitory Concentration (MIC) (E. coli CSH(RE45)) | Minimum Inhibitory Concentration (MIC) (E. coli CSH2 (RK1)) | Minimum Inhibitory Concentration (MIC) (A. calcoaceticus No. 4; A. calcoaceticus No. 4) | Minimum Inhibitory Concentration (MIC) (Ps. aeruginosa AK 109; [1]) | Minimum Inhibitory Concentration (MIC) (S. marcescens No. 16-2; 10^6 CFU/ml) | Minimum Inhibitory Concentration (MIC) (E. coli GN5482; 10^6 CFU/ml) | MIC (E. cloacae 963; [4]) | Minimum Inhibitory Concentration (MIC) (S. aureus 209P NIHJ-JC1) | Minimum Inhibitory Concentration (MIC) (K. pneumoniae PCI-602) | Minimum Inhibitory Concentration (MIC) (E. coli NIHJ JC2) | Minimum Inhibitory Concentration (MIC) (Ps. cepacia 23) | also measured |
| --- | --- | --- | --- | --- | --- | --- | --- | --- | --- | --- | --- | --- | --- | --- | --- | --- | --- | --- | --- | --- | --- |
| Nc1nc(C(=NOC(C(=O)O)c2ccc(O)c(O)c2)C(=O)NC2C(=O)N3C(C(=O)O)=C(CSc4nnc(-c5ccc(O)c(O)c5)s4)CSC23)cs1 (single isomer, unassigned) [Example 38 DA, disodium 7β-{2-(2-aminothiazol-4-yl)-2-(α-carboxylate-3,4-dihydroxybenzyloxyimino)acetamido]-3-[5-(3,4-dihydroxyphenyl)-1,3,4-thiadiazol-2-yl]thiomethyl-3-cephem-4-carboxylate] | 0.39 µg/mL | 0.025 µg/mL | 0.1 µg/mL | 0.05 µg/mL | 0.0125 µg/mL | 0.025 µg/mL | 0.05 µg/mL | 0.025 µg/mL | < 6 ng/mL | < 0.006 µg/mL | < 0.006 µg/mL | – | – | – | – | – | – | – | – | – | MIC (A. calcoaceticus No. 4; A. calcoaceticus No. 4, read-out: Minimum Inhibitory Concentration (MIC)): 0.025 µg/mL; MIC (Ps. aeruginosa AK 109; [1]): 0.2 µg/mL; MIC (Ps. aeruginosa AKR17; 16 h, Ps. aeruginosa AKR17, 10^6 CFU/ml, read-out: Minimum Inhibitory Concentration (MIC)): 0.1 µg/mL; MIC (S. marcescens No. 16-2; [2]): 0.2 µg/mL; MIC (E. coli GN5482; [2]): 0.2 µg/mL; MIC (P. vulgaris HX-19): 0.0125 µg/mL; MIC (S. aureus 209P NIHJ-JC1; Staphylococcus aureus, 16 h, read-out: Minimum Inhibitory Concentration (MIC), S. aureus 209P NIHJ-JC1): 0.78 µg/mL; MIC (K. pneumoniae PCI-602; Klebsiella pneumoniae, PCI602, 16 h, read-out: Minimum Inhibitory Concentration (MIC), K. pneumoniae PCI-602): < 6 ng/mL; MIC (E. coli NIHJ JC2; Escherichia coli, NIHJJC2, 16 h, read-out: Minimum Inhibitory Concentration (MIC), E. coli NIHJ JC2, 10^6 CFU/ml, 37° C.): 0.2 µg/mL |
| Nc1nc(C(=NOC(C(=O)O)c2ccc(O)c(O)c2)C(=O)NC2C(=O)N3C(C(=O)O)=C(CSc4nnc(-c5ccc(O)c(O)c5)s4)CSC23)cs1 (single isomer, unassigned) [Example 38 DB, disodium 7β-{2-(2-aminothiazol-4-yl)-2-(α-carboxylate-3,4-dihydroxybenzyloxyimino)acetamido]-3-[5-(3,4-dihydroxyphenyl)-1,3,4-thiadiazol-2-yl]thiomethyl-3-cephem-4-carboxylate] | 3.12 µg/mL | 0.1 µg/mL | 0.39 µg/mL | – | 0.1 µg/mL | 0.1 µg/mL | 0.2 µg/mL | 0.1 µg/mL | – | 0.0125 µg/mL | 0.025 µg/mL | 0.05 µg/mL | 0.78 µg/mL | 6.25 µg/mL | 0.78 µg/mL | 0.2 µg/mL | 1.56 µg/mL | < 6 ng/mL | 0.78 µg/mL | < 6 ng/mL | MIC (Ps. aeruginosa AKR17; AKR17, 16 h, read-out: Minimum Inhibitory Concentration (MIC), Ps. aeruginosa AKR17, 10^6 CFU/ml): 1.56 µg/mL; MIC (P. vulgaris HX-19; P. vulgaris HX-19, 10^6 CFU/ml): 0.025 µg/mL |
| Nc1nc(C(=NOC(C(=O)O)c2ccccc2)C(=O)NC2C(=O)N3C(C(=O)O)=C(CSc4nc(C(=O)O)c(-c5ccc(O)c(O)c5)s4)CSC23)cs1 (single isomer, unassigned) [Example 51 DA] | 1.56 µg/mL | 0.39 µg/mL | – | – | 0.2 µg/mL | 0.1 µg/mL | 0.2 µg/mL | – | < 6 ng/mL | 0.1 µg/mL | 0.05 µg/mL | – | 1.56 µg/mL | – | – | 0.2 µg/mL (≈ 0.255 µM) | 100 µg/mL | 12.5 ng/mL | 3.12 µg/mL | – | MIC (A. calcoaceticus No. 4; read-out: Minimum Inhibitory Concentration (MIC), A. calcoaceticus No. 4): 0.1 µg/mL (≈ 0.127 µM); Minimum Inhibitory Concentration (MIC) (Ps. aeruginosa AKR17; Ps. aeruginosa AKR17, 10^6 CFU/ml): 1.56 µg/mL; MIC (S. marcescens No. 16-2; read-out: Minimum Inhibitory Concentration (MIC), *S. marcescens No. 16-2, lactamase-producing strain, 10^6 CFU/ml): 1.56 µg/mL (≈ 1.99 µM); MIC (E. coli GN5482; read-out: Minimum Inhibitory Concentration (MIC), *E. coli GN5482, lactamase-producing strain, 10^6 CFU/ml): 1.56 µg/mL (≈ 1.99 µM); MIC (E. cloacae Nek 39; Enterobacter cloacae, NEK39, 16 h, read-out: Minimum Inhibitory Concentration (MIC), *E. cloacae Nek 39, lactamase-producing strain): 0.1 µg/mL (≈ 0.127 µM); Minimum Inhibitory Concentration (MIC) (P. vulgaris HX-19; P. vulgaris HX-19, 10^6 CFU/ml): 0.2 µg/mL; MIC (S. marcescens IAM 1184; Serratia marcescens, IAM1184, 16 h, read-out: Minimum Inhibitory Concentration (MIC)): 0.1 µg/mL (≈ 0.127 µM) |
| Nc1nc(C(=NOC(C(=O)O)c2ccccc2)C(=O)NC2C(=O)N3C(C(=O)O)=C(CSc4nc(C(=O)O)c(-c5ccc(O)c(O)c5)s4)CSC23)cs1 (single isomer, unassigned) [Example 51 DB] | – | 0.0125 µg/mL | 0.05 µg/mL | 0.05 µg/mL (≈ 0.0637 µM) | 0.05 µg/mL | 0.025 µg/mL | 0.05 µg/mL | 0.05 µg/mL | – | 0.0125 µg/mL | 0.0125 µg/mL | 0.1 µg/mL | – | 0.78 µg/mL | 0.78 µg/mL | – | 25 µg/mL | < 6 ng/mL | 0.39 µg/mL | < 6 ng/mL | MIC (Ps. aeruginosa IF03445; Pseudomonas aeruginosa, IF03445, 16 h, read-out: Minimum Inhibitory Concentration (MIC), Ps. aeruginosa IF03445): 0.39 µg/mL (≈ 0.497 µM); MIC (Ps. aeruginosa AK 109): 0.39 µg/mL (≈ 0.497 µM); MIC (Ps. aeruginosa AKR17; AKR17, 16 h, read-out: Minimum Inhibitory Concentration (MIC)): 0.39 µg/mL (≈ 0.497 µM); Minimum Inhibitory Concentration (MIC) (P. vulgaris HX-19; P. vulgaris HX-19, 10^6 CFU/ml): < 0.006 µg/mL |
